PubChem BioAssay AID248 (DTP/NCI, 2004)
“And” between values parts separate entries of the source, which are not always exact repeats. Equal entries are not always repeated. Inconclusive results and toxic doses are left out.

System: L1210 leukemia ip in BDF1 mice, survival T/C
Experiment: NCI In Vivo Anticancer Drug Screen. Data for tumor model L1210 Leukemia (intraperitoneal) in B6D2F1 (BDF1) mice
Conditions: endpoint: mean survival time, higher = longer survival
Method in brief: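 In this screen, tumor-bearing mice given compound are compared to those given vehicle, and their survival values are reported as a treated-to-control quotient.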

[1] = dose: 100.0 mg/kg/injection, schedule: Q01DX001 (ip), vehicle: saline
[2] = dose: 100.0 mg/kg/injection, schedule: Q04DX003 (ip), vehicle: Klucel (hydroxypropylcellulose) (HPC)
[3] = dose: 200.0 mg/kg/injection, schedule: Q04DX003 (ip), vehicle: Klucel (hydroxypropylcellulose) (HPC)
[4] = dose: 400.0 mg/kg/injection, schedule: Q04DX003 (ip), vehicle: Klucel (hydroxypropylcellulose) (HPC)
[5] = dose: 50.0 mg/kg/injection, schedule: Q01DX001 (ip), vehicle: saline
[6] = dose: 200.0 mg/kg/injection, schedule: Q01DX001 (ip), vehicle: saline
[7] = dose: 100.0 mg/kg/injection, schedule: Q01DX005 (ip), vehicle: saline
[8] = dose: 200.0 mg/kg/injection, schedule: Q01DX005 (ip), vehicle: saline
[9] = dose: 100.0 mg/kg/injection, schedule: Q01DX009 (ip), vehicle: Klucel (hydroxypropylcellulose) (HPC)
[10] = dose: 100.0 mg/kg/injection, schedule: Q04DX003 (ip), vehicle: saline
[11] = dose: 200.0 mg/kg/injection, schedule: Q04DX003 (ip), vehicle: saline
[12] = dose: 200.0 mg/kg/injection, schedule: Q01DX009 (ip), vehicle: Klucel (hydroxypropylcellulose) (HPC)
[13] = dose: 400.0 mg/kg/injection, schedule: Q01DX001 (ip), vehicle: saline
[14] = dose: 400.0 mg/kg/injection, schedule: Q01DX009 (ip), vehicle: Klucel (hydroxypropylcellulose) (HPC)

For `COc1ccccc1CC(C)N` (stereo unspecified), the T/C (dose: 5.0 mg/kg/injection, schedule: Q01DX001 (ip), vehicle: saline) was 100 % of control, the T/C (dose: 10.0 mg/kg/injection, schedule: Q01DX001 (ip), vehicle: saline) was 102 % of control and the T/C (dose: 20.0 mg/kg/injection, schedule: Q01DX001 (ip), vehicle: saline) was 102 % of control. For the same molecule, the T/C (dose: 20.0 mg/kg/injection, schedule: Q01DX009 (ip), vehicle: saline) was 106 % of control, the T/C (dose: 40.0 mg/kg/injection, schedule: Q01DX001 (ip), vehicle: saline) was 96 % of control and the T/C (dose: 40.0 mg/kg/injection, schedule: Q01DX009 (ip), vehicle: saline) was 97 % of control. The T/C (dose: 80.0 mg/kg/injection, schedule: Q01DX009 (ip), vehicle: saline) was 111 % of control and the T/C [1] was 103 % of control.

With `CC1(CCc2ccc(N)cc2)NC(=O)NC1=O` (stereo unspecified) the T/C [2] was 110 % of control, the T/C [3] was 96 % of control and the T/C [4] was 93 % of control.

In the case of `Cc1ccc(NCCN(C)C)c2c(=O)c3ccccc3sc12`, the T/C (dose: 9.3 mg/kg/injection, schedule: Q01DX Z (ip), vehicle: saline) is reported as 104 % of control, the T/C (dose: 14.0 mg/kg/injection, schedule: Q01DX Z (ip), vehicle: saline) is reported as 108 % of control and the T/C (dose: 21.0 mg/kg/injection, schedule: Q01DX Z (ip), vehicle: saline) is reported as 118 % of control. The T/C (dose: 28.0 mg/kg/injection, schedule: Q01DX Z (ip), vehicle: saline) was 117 % of control, the T/C (dose: 42.0 mg/kg/injection, schedule: Q01DX Z (ip), vehicle: saline) was 163 % of control and the T/C [5] was 101 % of control. The T/C (dose: 84.0 mg/kg/injection, schedule: Q01DX Z (ip), vehicle: saline) was 115 % of control, the T/C (dose: 89.0 mg/kg/injection, schedule: Q01DX001 (ip), vehicle: saline) was 100 % of control and the T/C (dose: 93.0 mg/kg/injection, schedule: Q01DX Z (ip), vehicle: saline) was 101 % of control. For the same molecule, the T/C [1] was 109 % of control, the T/C (dose: 100.0 mg/kg/injection, schedule: Q01DX Z (ip), vehicle: saline) was 107 % of control and the T/C (dose: 125.0 mg/kg/injection, schedule: Q01DX Z (ip), vehicle: carboxymethylcellulose (CMC)) was 151 % of control. For the same molecule, the T/C (dose: 133.0 mg/kg/injection, schedule: Q01DX001 (ip), vehicle: saline) was 117 % of control and the T/C [6] was 155 % of control and 212 % of control.

`CCSC(C(O)C(O)C(O)CO)n1ccc(=O)[nH]c1=O` (stereo unspecified) was tested, and the T/C [7] was 97 % of control and the T/C [8] was 93 % of control.

With `N=C(N(O)C(=O)Nc1ccccc1)C(Cl)(Cl)Cl` the T/C (dose: 25.0 mg/kg/injection, schedule: Q01DX009 (ip), vehicle: Klucel (hydroxypropylcellulose) (HPC)) was 98 % of control, the T/C (dose: 50.0 mg/kg/injection, schedule: Q01DX009 (ip), vehicle: Klucel (hydroxypropylcellulose) (HPC)) was 100 % of control and the T/C [9] was 104 % of control and 105 % of control.

With `CCCC1([N+]2(C)CCCC2)CS(=O)C1CC` (stereo unspecified) the T/C [10] was 98 % of control and the T/C [11] was 93 % of control.

With `C=CCN(C)/N=N/c1[nH]ncc1C(N)=O` the T/C (dose: 14.5 mg/kg/injection, schedule: Q01DX009 (ip), vehicle: saline with Tween-80) was 116 % of control, the T/C (dose: 44.0 mg/kg/injection, schedule: Q04DX003 (ip), vehicle: saline with Tween-80) was 114 % of control and the T/C (dose: 50.0 mg/kg/injection, schedule: Q01DX009 (ip), vehicle: saline with Tween-80) was 157 % of control. For the same molecule, the T/C (dose: 50.0 mg/kg/injection, schedule: Q04DX003 (ip), vehicle: saline with Tween-80) was 119 % of control, the T/C (dose: 67.0 mg/kg/injection, schedule: Q04DX003 (ip), vehicle: saline with Tween-80) was 114 % of control and the T/C (dose: 100.0 mg/kg/injection, schedule: Q01DX001 (ip), vehicle: saline with Tween-80) was 109 % of control. For the same molecule, the T/C (dose: 100.0 mg/kg/injection, schedule: Q01DX009 (ip), vehicle: saline with Tween-80) was 154 % of control and the T/C (dose: 200.0 mg/kg/injection, schedule: Q01DX009 (ip), vehicle: saline with Tween-80) was 88 % of control.

With `CN(C)C(=O)Sc1ccc([N+](=O)[O-])cc1` the T/C (dose: 100.0 mg/kg/injection, schedule: Q04DX003 (ip), vehicle: saline with Tween-80) was 105 % of control, the T/C (dose: 200.0 mg/kg/injection, schedule: Q04DX003 (ip), vehicle: saline with Tween-80) was 111 % of control and the T/C (dose: 400.0 mg/kg/injection, schedule: Q04DX003 (ip), vehicle: saline with Tween-80) was 104 % of control.

With `COC1Nc2cc3ccccc3cc2-c2ccccc21` (stereo unspecified) the T/C (dose: 100.0 mg/kg/injection, schedule: Q01DX001 (ip), vehicle: carboxymethylcellulose (CMC)) was 97 % of control and the T/C (dose: 200.0 mg/kg/injection, schedule: Q01DX001 (ip), vehicle: carboxymethylcellulose (CMC)) was 97 % of control.

For `O=C(/C=C/c1ccc([N+](=O)[O-])cc1)Nc1ccc(S(=O)(=O)F)cc1`, the T/C [1] was 96 % of control, the T/C [9] was 94 % of control and the T/C [6] was 101 % of control. The T/C [12] was 89 % of control, the T/C [13] was 100 % of control and the T/C [14] was 88 % of control.

In the case of `NC(CSC(c1ccccc1)(c1ccccc1)c1ccc(CO)cc1)C(=O)O` (stereo unspecified), the T/C (dose: 400.0 mg/kg/injection, schedule: Q01DX009 (ip), vehicle: saline) is reported as 150 % of control and 157 % of control and the T/C (dose: 600.0 mg/kg/injection, schedule: Q01DX009 (ip), vehicle: saline) is reported as 168 % of control.

`O=C1NC(C(=O)O)CC1O` (stereo unspecified) was tested, and the T/C [5] was 100 % of control, the T/C [1] was 95 % of control and 97 % of control and the T/C [6] was 98 % of control and 88 % of control. The T/C [13] was 97 % of control.

In the case of `CC(CN)N(C)C` (stereo unspecified), the T/C (dose: 50.0 mg/kg/injection, schedule: Q01DX009 (ip), vehicle: saline) is reported as 89 % of control, the T/C (dose: 100.0 mg/kg/injection, schedule: Q01DX009 (ip), vehicle: saline) is reported as 95 % of control and the T/C [10] is reported as 93 % of control. For the same molecule, the T/C (dose: 200.0 mg/kg/injection, schedule: Q01DX009 (ip), vehicle: saline) was 89 % of control and the T/C [11] was 97 % of control.

With `C/C(=C/CO)CC/C=C(\C)CC/C=C(\C)CCC1OC1(C)C` (stereo unspecified) the T/C [1] was 92 % of control, the T/C [6] was 96 % of control and the T/C [13] was 102 % of control.

For `CCOC(=O)Nc1ccccn1`, the T/C (dose: 100.0 mg/kg/injection, schedule: Q04DX002 (ip), vehicle: Klucel (hydroxypropylcellulose) (HPC)) was 100 % of control, the T/C (dose: 200.0 mg/kg/injection, schedule: Q04DX002 (ip), vehicle: Klucel (hydroxypropylcellulose) (HPC)) was 103 % of control and the T/C (dose: 400.0 mg/kg/injection, schedule: Q04DX002 (ip), vehicle: Klucel (hydroxypropylcellulose) (HPC)) was 92 % of control.

`COc1ccccc1/C=C/c1cnccn1` was tested, and the T/C [9] was 98 % of control, the T/C [2] was 96 % of control and the T/C [12] was 101 % of control. The T/C [3] was 102 % of control, the T/C [14] was 93 % of control and the T/C [4] was 104 % of control.

With `Clc1c(CBr)ccc(CBr)c1Cl` the T/C (dose: 6.25 mg/kg/injection, schedule: Q01DX009 (ip), vehicle: saline with Tween-80) was 91 % of control, the T/C (dose: 6.25 mg/kg/injection, schedule: Q04DX003 (ip), vehicle: Klucel (hydroxypropylcellulose) (HPC)) was 95 % of control and the T/C (dose: 12.5 mg/kg/injection, schedule: Q01DX009 (ip), vehicle: saline with Tween-80) was 89 % of control. For the same molecule, the T/C (dose: 12.5 mg/kg/injection, schedule: Q04DX003 (ip), vehicle: Klucel (hydroxypropylcellulose) (HPC)) was 92 % of control, the T/C (dose: 25.0 mg/kg/injection, schedule: Q01DX009 (ip), vehicle: saline with Tween-80) was 96 % of control and the T/C (dose: 25.0 mg/kg/injection, schedule: Q04DX003 (ip), vehicle: Klucel (hydroxypropylcellulose) (HPC)) was 93 % of control.

With `Cc1ccc(S(=O)(=O)OCC2OC(OCc3ccccc3)C3OC(C)(C)OC23)cc1` (stereo unspecified) the T/C (dose: 50.0 mg/kg/injection, schedule: Q04DX003 (ip), vehicle: Klucel (hydroxypropylcellulose) (HPC)) was 91 % of control, the T/C [3] was 88 % of control and the T/C [4] was 92 % of control.

For `N/N=C(\N)c1nn(C2OC(CO)C(O)C2O)c2ncnc(N)c12` (stereo unspecified), the T/C (dose: 60.0 mg/kg/injection, schedule: Q01DX005 (ip), vehicle: saline) was 116 % of control, the T/C [7] was 124 % of control and the T/C [8] was 113 % of control.

For `CSc1nc(-c2cccs2)cc(C(F)(F)F)n1`, the T/C (dose: 100.0 mg/kg/injection, schedule: Q04DX003 (ip), vehicle: gum acacia) was 97 % of control, the T/C (dose: 200.0 mg/kg/injection, schedule: Q04DX003 (ip), vehicle: gum acacia) was 100 % of control and the T/C (dose: 400.0 mg/kg/injection, schedule: Q04DX003 (ip), vehicle: gum acacia) was 102 % of control.

For `CSC(CC(=O)O)C(=O)O` (stereo unspecified), the T/C (dose: 75.0 mg/kg/injection, schedule: Q01DX001 (ip), vehicle: saline) was 97 % of control and the T/C (dose: 150.0 mg/kg/injection, schedule: Q01DX001 (ip), vehicle: saline) was 108 % of control.
